# Legend:
# ROC1/CUL1 = target: T1, ROC1/CUL1 (Homo sapiens, UniProt P62877+Q13616); assay: ROC1/CUL1 ubiquitin ligase assay (SCF assay); assay type: biochemical
# T1 construct: made in house
# Procedure: Inhibition of ubiquitin ligase activity of E1+E2+E3 was measured using the protocol as described in WO 01/75145 with E3 as the ROC1/CUL1, ROC1/CUL2, or ROC2/CUL5 complex.
# The wells of nickel-substrate 96-well plates (Pierce Chemical) are blocked with 100 μl of 1 casein/phosphate buffered saline (PBS) for 1 hour at room temperature, then washed with 200 μl of PBST (0.1% Tween-20 in PBS) 3 times. To each well is added the following Flag-ubiquitin (see above) reaction solution: 62.5 mM Tris pH 7.5, 6.25 mm MgCl2, 0.75 mM DTT, 2.5 mM ATP, 2.5 mM NaF1, 2.5 nM Okadaic acid, 100 ng Flag-ubiquitin (made as described above).
# The buffer solution is brought to a final volume of 80 μl with Milipore-filtered water, followed by the addition of 10 μl DMSO.
# To the above solution is then added 10 μl of ubiquitination enzymes in 20 mM Tris buffer, pH 7.5, and 5% glycerol. E2-Ubch5c and E3-His ROC1/Cul1, ROC1/CUL2, and ROC2/CUL5 are made as described in WO 01/75145. E1 is obtained commercially (Affiniti Research Products, Exeter, U. K.). The following amounts of each enzyme are used for these assays: 5 ng/well of E1; […] E2; and 100 ng/well His-E3. Varying amounts of compounds according to the invention are added and the reaction allowed to proceed at room temperature for 1 hour.
# Following the ubiquitination reaction, the wells are washed with 200 μl of PBST 3 times. For measurement of the enzyme-bound ubiquitin, 100 gel of Mouse anti-Flag (1:10,000) and anti-Mouse Ig-HRP (1:15, 000) in PBST are added to each well and allowed to incubate at room temperature for 1 hour. The wells are then washed with 200 μl of PBST 3 times, followed by the addition of 100 μl of luminol substrate (1/5 dilution). Luminescence for each well is then measured using a fluorimeter.
# Table 2 below illustrates the inhibitory activity of the compounds of the invention determined by the TRAF6/Uev1A/Ubc13 assay as well as in the ICAM, APC and the ROC1/CUL1 Ubiquitin Ligase Assay (SCF Assay). The IC50 values were determined using a various concentrations of the compounds.
# TRAF6/Uev1A/Ubc13 = target: T2, TRAF6/Uev1A/Ubc13 (Homo sapiens, UniProt Q9Y4K3); assay: TRAF6/Uev1A/Ubc13 plate-based ubiquitin ligase assay; assay type: biochemical
# T2 sequence (Q9Y4K3 1-522): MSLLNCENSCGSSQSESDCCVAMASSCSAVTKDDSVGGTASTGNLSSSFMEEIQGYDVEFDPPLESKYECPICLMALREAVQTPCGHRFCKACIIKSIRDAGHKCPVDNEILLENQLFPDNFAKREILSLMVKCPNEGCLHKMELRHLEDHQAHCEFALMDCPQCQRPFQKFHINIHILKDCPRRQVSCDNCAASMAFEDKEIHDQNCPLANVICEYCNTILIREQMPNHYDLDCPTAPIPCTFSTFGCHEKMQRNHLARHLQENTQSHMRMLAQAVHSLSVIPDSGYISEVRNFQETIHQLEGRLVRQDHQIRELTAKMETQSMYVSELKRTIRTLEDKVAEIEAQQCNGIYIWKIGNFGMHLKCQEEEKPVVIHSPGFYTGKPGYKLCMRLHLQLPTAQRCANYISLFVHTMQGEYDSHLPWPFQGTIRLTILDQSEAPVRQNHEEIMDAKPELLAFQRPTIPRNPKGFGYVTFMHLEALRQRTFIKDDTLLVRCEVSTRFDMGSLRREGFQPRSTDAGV
# Summary of the method: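 Ligase activity was read as luminescence from anti-Flag/HRP detection of Flag-ubiquitin bound to casein-blocked Ni-plates alongside His-ubiquitin after a 1 h room-temperature reaction. Buffer: 62.5 mM Tris pH 7.5, 6.25 mM MgCl2, 1.0 mM DTT, 2 μM ATP; E1, Uev1a/Ubc13 and TRAF6 added last to start. IC50s derived across compound concentrations.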
# [1] = system: ICAM-1 expression in A549 cells; assay: ICAM assay (IL-1 induced ICAM-1/CD54 expression in A549 cells); assay type: cell-based, human; settings: Homo sapiens, A549, ICAM assay
# Summary of the method: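 Luminescent immunostaining (anti-CD54, then anti-mouse IgG, 1 h) quantifies ICAM-1 on A549 cells induced 4 h at 37° C by IL-1 (4 μl of 25 ng/ml added). Compound is added 1 h before the cytokine to cells plated overnight at 10,000 per well.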
# A549 cells = assay: Cell proliferation PAD assay, A549; assay type: cell-based; settings: Homo sapiens, 3pt, 48 hours, read-out: A549 3pt
# Summary of the method: (§1)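 2,000 cells/well; compound added at 24 h (duplicate, 6.3-fold series, 10 mM stock, 500× dilution into wells); 48 h, 37 °C/5% CO2. Formamide fix, DAPI stain, image-based counts of live (proliferation), apoptotic, dead cells.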
# H1299 cells = assay: Cell proliferation PAD assay, H1299; assay type: cell-based; settings: Homo sapiens, NCI-H1299, 3pt, 48 hours, read-out: H1299 3pt
# Summary of the method: as §1
# T1 sequence (P62877 whole entry): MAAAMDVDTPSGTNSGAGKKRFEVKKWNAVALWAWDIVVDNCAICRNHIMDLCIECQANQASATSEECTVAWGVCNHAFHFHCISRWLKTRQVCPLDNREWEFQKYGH
# T1 sequence (Q13616 whole entry): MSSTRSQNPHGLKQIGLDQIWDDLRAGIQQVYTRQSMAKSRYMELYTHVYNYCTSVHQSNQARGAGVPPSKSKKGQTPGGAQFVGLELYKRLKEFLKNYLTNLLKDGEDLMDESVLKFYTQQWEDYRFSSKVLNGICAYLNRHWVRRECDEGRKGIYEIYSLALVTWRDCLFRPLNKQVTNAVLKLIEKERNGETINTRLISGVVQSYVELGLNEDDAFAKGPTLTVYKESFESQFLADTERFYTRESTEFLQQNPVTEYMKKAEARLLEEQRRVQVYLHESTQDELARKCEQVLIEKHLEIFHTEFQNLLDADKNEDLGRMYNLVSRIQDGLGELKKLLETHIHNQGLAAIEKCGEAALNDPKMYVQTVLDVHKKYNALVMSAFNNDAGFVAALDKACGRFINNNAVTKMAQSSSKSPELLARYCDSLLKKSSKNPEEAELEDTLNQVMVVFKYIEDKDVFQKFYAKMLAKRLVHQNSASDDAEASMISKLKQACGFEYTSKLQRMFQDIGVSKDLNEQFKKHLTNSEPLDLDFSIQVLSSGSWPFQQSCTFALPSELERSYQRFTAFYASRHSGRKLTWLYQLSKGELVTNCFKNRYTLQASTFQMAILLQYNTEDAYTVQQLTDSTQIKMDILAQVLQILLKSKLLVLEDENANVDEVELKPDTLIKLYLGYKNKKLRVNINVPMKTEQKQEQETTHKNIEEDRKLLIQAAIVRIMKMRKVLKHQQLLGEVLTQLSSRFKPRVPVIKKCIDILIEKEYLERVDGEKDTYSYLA
IC50 (ROC1/CUL1) [µM],IC50 (TRAF6/Uev1A/Ubc13) [µM],IC50 [1] [µM],IC50 (A549 cells) [µM],IC50 (H1299 cells) [µM],Compound
≥ 20,1 to 20,≥ 20,,,"COc1ccc(Cl)cc1NS(=O)(=O)c1ccc(Cl)c2nonc12 [compound 269, 7-chloro-N-(5-chloro-2-methoxyphenyl)-2,1,3-benzoxadiazole-4-sulfonamide]"
≥ 20,≥ 20,≥ 20,,,"CN1CCN(S(=O)(=O)c2ccc(Sc3ccc4ccccc4n3)c3nonc23)CC1 [compound 268, 2-({7-[(4-methylpiperazin-1-yl)sulfonyl]-2,1,3-benzoxadiazol-4-yl}thio)quinoline]"
≥ 20,1 to 20,,≥ 20,1 to 20,"O=[N+]([O-])c1ccc(Nc2ccc3[nH]ncc3c2)c2nonc12 [compound 222, N-1H-indazol-5-yl-7-nitro-2,1,3-benzoxadiazol-4-amine]"
≥ 20,< 1,,≥ 20,≥ 20,"O=S(=O)(c1ccc(Sc2ccc(O)cc2)c2nonc12)N1CCC(O)(c2ccc(Cl)cc2)CC1 [compound 228, 4-(4-chlorophenyl)-1-({7-[(4-hydroxyphenyl)thio]-2,1,3-benzoxadiazol-4-yl}sulfonyl)piperidin-4-ol]"
≥ 20,1 to 20,,1 to 20,1 to 20,"CC1CC(C)CN(S(=O)(=O)c2ccc(Sc3cccc4cccnc34)c3nonc23)C1 (centres unmarked) [compound 197, 8-({7-[(3,5-dimethylpipendin-1-yl)sulfonyl]-2,1,3-benzoxadiazol-4-yl}thio)quinoline]"
≥ 20,1 to 20,,,,"O=[N+]([O-])c1ccc(Nc2ccc3cn[nH]c3c2)c2nonc12 [compound 223, N-1H-indazol-6-yl-7-nitro-2,1,3-benzoxadiazol-4-amine]"
≥ 20,≥ 20,,,,"O=S(=O)(c1ccc(Sc2ccc3ccccc3n2)c2nonc12)N1CCC(O)(c2ccc(Cl)cc2)CC1 [compound 485, 4-(4-chlorophenyl)-1-({7-(quinolin-2ylthio)-2,1,3-benzoxadiazol-4-yl}sulfonyl)piperidin-4-ol]"
≥ 20,≥ 20,,,,"O=S(=O)(Nc1ccc(F)c(F)c1)c1ccc(Nc2ccc(F)c(F)c2)c2nonc12 [compound 264, N-(3,4-difluorophenyl)-7-[(3,4-difluorophenyl)amino]-2,1,3-benzoxadiazole-4-sulfonamide]"
≥ 20,≥ 20,,,,"CN1CCN(S(=O)(=O)c2ccc(Sc3ccc(O)cc3)c3nonc23)CC1 [compound 266, 4-({7-[(4-methylpiperazin-1-yl)sulfonyl]-2,1,3-benzoxadiazol-4-yl}thio)phenol]"
≥ 20,≥ 20,,,,"COC(=O)c1ccc(NS(=O)(=O)c2ccc(Sc3ccncc3)c3nonc23)cc1 [compound 256, methyl 4-({[7-(pyridin-4-ylthio)-2,1,3-benzoxadiazol-4-yl]sulfonyl}amino)benzoate]"
≥ 20,≥ 20,,,,"CN1CCN(S(=O)(=O)c2ccc(Sc3cccc4ccccc34)c3nonc23)CC1 [compound 267, 4-[(4-methylpiperazin-1-yl)sulfonyl]-7-(1-naphthylthio)-2,1,3-benzoxadiazole]"

# Further lines, the molecule ahead of its results:
Compound,IC50 (ROC1/CUL1) [µM],IC50 (TRAF6/Uev1A/Ubc13) [µM],IC50 [1] [µM],IC50 (A549 cells) [µM],IC50 (H1299 cells) [µM]
"O=[N+]([O-])c1ccc(N2CCC3(CC2)OCc2ccccc23)c2nonc12 [compound 284, 1′-(7-nitro-2,1,3-benzoxadiazol-4-yl)-3H-spiro[2-benzofuran-1,4′-piperidine]]",≥ 20,1 to 20,,≥ 20,≥ 20
"O=[N+]([O-])c1ccc(Sc2ccc3ccccc3n2)c2nonc12 [compound 238, 2-[(7-nitro-2,1,3-benzoxadiazol-4-yl)thio]quinoline]",≥ 20,1 to 20,≥ 20,,
"CC1CN(S(=O)(=O)c2c(Sc3cccc4cccnc34)ccc3nonc23)CC(C)O1 (centres unmarked) [compound 216, 8-({4-[(2,6-dimethylmorpholin-4-yl)sulfonyl]-2,1,3-benzoxadiazol-5-yl}thio)quinoline]",≥ 20,1 to 20,,,
"N#Cc1ccc(N2CCN(c3ccc4nonc4c3S(=O)(=O)N3CCN(c4ccc(C#N)cn4)CC3)CC2)nc1 [compound 210, 6-[4-({5-[4-(5-cyanopyridin-2-yl)piperazin-1-yl]-2,1,3-benzoxadiazol-4-yl}sulfonyl)piperazin-1-yl]nicotinonitrile]",≥ 20,≥ 20,,≥ 20,1 to 20
"N#Cc1ccc(N2CCN(S(=O)(=O)c3c(Sc4cccc5cccnc45)ccc4nonc34)CC2)nc1 [compound 212, 6-(4-{[5-(quinolin-8-ylthio)-2,1,3-benzoxadiazol-4-yl]sulfonyl}piperazin-1-yl)nicotinonitrile]",≥ 20,1 to 20,,1 to 20,1 to 20
"O=[N+]([O-])c1ccc(N2CCC(Oc3ccccn3)CC2)c2nonc12 [compound 287, 4-nitro-7-[4-(pyridin-2-yloxy)piperidin-1-yl]-2,1,3-benzoxadiazole]",≥ 20,≥ 20,,,
"O=C(Nc1ccc(N2CCN(c3ncc(C(F)(F)F)cc3Cl)CC2)c2nonc12)c1cccs1 [compound 281, N-(7-{4-[3-chloro-5-(trifluoromethyl)pyridin-2-yl]piperazin-1-yl}-2,1,3-benzoxadiazol-4-yl)thiophene-2-carboxamide]",1 to 20,1 to 20,,,
"O=S(=O)(c1cccc2nsnc12)N1CCC2(CC1)OCc1ccccc12 [compound 257, 1′-(2,1,3-benzothiadiazol-4-ylsulfonyl)-3H-spiro[2-benzofiiran-1,4′-piperidine]]",≥ 20,≥ 20,,≥ 20,≥ 20
"CCOC(=O)CSc1cc(NCCCOC(C)=O)c([N+](=O)[O-])c2nonc12 [compound 137, ethyl [(6-{[3-(acetyloxy)propyl]amino}-7-nitro-2,1,3-benzoxadiazol-4-yl)thio]acetate]",≥ 20,≥ 20,,,
"COc1ccccc1Sc1ccc(S(=O)(=O)N2CCN(C)CC2)c2nonc12 [compound 270, 4-[(2-methoxyphenyl)thio]-7-[(4-methylpiperazin-1-yl)sulfonyl]-2,1,3-benzoxadiazole]",≥ 20,≥ 20,,,
"CC(=O)OCCCNc1cc(Sc2nnc(C)s2)c2nonc2c1[N+](=O)[O-] [compound 133, 3-({7-[(5-methyl-1,3,4-thiadiazol-2-yl)thio]-4-nitro-2,1,3-benzoxadiazol-5-yl}amino)propyl acetate]",≥ 20,≥ 20,,,
"Cc1cccc(N2CCN(S(=O)(=O)c3ccc(Sc4cccc5cccnc45)c4nonc34)CC2)n1 [compound 196, 8-[(7-{[4-(6-methylpyndin-2-yl)piperazin-1-yl]sulfonyl}-2,1,3-benzoxadiazol-4-yl)thio]quinoline]",≥ 20,1 to 20,,≥ 20,≥ 20
